# Several values for one entry are separate records, joined by “and”; a condition that tells them apart may be missing. Equal values may be shown once.
# Tests used:
# Type in all cases: cell-based, human
# MOLT-3 cells = test: MTT cytotoxicity assay, MOLT-3; settings: means ± SEM
# Text: (§1) U-937, HL-60, MOLT-3, NALM-6, and SK-MEL-1 cells were from DSMZ (German Collection of Microorganisms and Cell Cultures, Braunschweig, Germany). U-937/Bcl-2 cells were kindly provided by Dr. Jacqueline Bréard (INSERM U749, Faculté de Pharmacie Paris-Sud, Châtenay-Malabry, France). The U-937 is a pro-monocytic, human promyelocytic leukemia cell line that was isolated from a histiocytic lymphoma. HL-60 is a human acute myeloid leukemia cell line. MOLT-3 is a human acute lymphoblastic leukemia cell line. NALM-6 is a human B cell precursor leukemia. SK-MEL-1 is a human melanoma cell line growing singly or in clumps (occasional giant, polynucleated cell) in suspension. Cells were cultured in RPMI 1640 medium containing 10% (v/v) heat-inactivated fetal bovine serum, 100 μg/mL streptomycin, and 100 U/mL penicillin, incubated at 37 °C in a humidified atmosphere containing 5% CO2 as described. The doubling times of the cell lines were 24 h in HL-60, 30 h in U-937, U-937/Bcl-2, 40 h in MOLT-3 and NALM-6, and several days in SK-MEL-1 cells. Human peripheral blood mononuclear cells (PBMC) were isolated from heparin-anticoagulated blood of healthy volunteers by centrifugation with Ficoll-Paque Plus (GE Healthcare Bio-Sciences AB, Uppsala, Sweden). PBMC were also stimulated with phytohemagglutinin (2 µg/mL) for 48 h before the experimental treatment. The trypan blue exclusion method was used for counting the cells by a hemocytometer with 95% viability in all the experiments. Compounds were dissolved in dimethyl sulfoxide (DMSO) and kept under dark conditions at 25 °C. […] The cytotoxicity of the synthetic compounds was evaluated by colorimetric 3-(4,5-dimethyl-2-thiazolyl-)-2,5-diphenyl-2H-tetrazolium bromide (MTT) assay as previously described. Briefly, cells (5000 per well) were incubated with increasing concentrations of compounds for 72 h into a 96-well plate. Then, the supernatants were removed and 0.5 mg/mL MTT was added and incubated for 4 h at 37 °C. Sodium dodecyl sulfate (10% w/v) in 0.05 M HCl was added to solubilize the reaction products and the absorbance was measured at 570 nm with a reference wavelength of […] using an ELISA reader (Bio-Rad, Hercules, CA, USA). The IC50 values (concentrations inducing a 50% inhibition of cell viability) were determined graphically for each experiment by a nonlinear regression using the curve fitting routine implemented within the software Prism 5.0 (GraphPad, La Jolla, CA, USA).
# U-937/Bcl-2 cells = test: MTT cytotoxicity assay, U-937/Bcl-2; settings: means ± SEM
# Text: as §1
# SK-MEL-1 cells = test: MTT cytotoxicity assay, SK-MEL-1; settings: means ± SEM
# Text: as §1
# U-937 leukemia cells = test: Cell cycle and sub-G1 analysis by flow cytometry (propidium iodide); settings: 24 h; for fold increase of sub-G1 cells over control / %G1 / %G2-M / %S / %Sub-G1: 10 µM; for fold increase of sub-G1 cells over control: U-937; for %G1 / %G2-M / %S / %Sub-G1: U-937, means ± S.E.; for cell cycle arrest: U-937, 10 µM
# Method: (§2) Cells (2.5 × 10^5) were centrifuged for 10 min at 500× g, washed with cold PBS, fixed with ice-cold 75% ethanol and stored at −20 °C overnight. Samples were then centrifuged at 500× g for 10 min at 4 °C, washed with PBS, resuspended in 200 μL of PBS containing 100 μg/mL RNase and 50 μg/mL propidium iodide and incubated for 1 h in the dark. The DNA content was analyzed by flow cytometry with a BD FACSVerse^TM cytometer (BD Biosciences, San Jose, CA, USA). Apoptosis was also evaluated by flow cytometric analysis of double-staining annexin V-FITC and propidium iodide cells as previously described.
# U-937 cells = test: Annexin V-FITC/propidium iodide flow cytometry, U-937; settings: U-937, 10 µM, 24 h; for annexin V-FITC positive cells: control 3.5%
# Method: as §2
Compound,"IC50 (MOLT-3 cells; Homo sapiens, MOLT-3, 72 h)","IC50 (U-937/Bcl-2 cells; Homo sapiens, U-937, 72 h)","IC50 (SK-MEL-1 cells; Homo sapiens, SK-MEL-1, 72 h)",fold increase of sub-G1 cells over control (U-937 leukemia cells),%G1 (U-937 leukemia cells),%G2-M (U-937 leukemia cells),%S (U-937 leukemia cells),%Sub-G1 (U-937 leukemia cells),cell cycle arrest (U-937 leukemia cells),fold increase of annexin V-FITC positive cells over control (U-937 cells),annexin V-FITC positive cells (U-937 cells),IC50 (MOLT-3 cells; 72 h),IC50 (U-937/Bcl-2 cells; 72 h),IC50 (SK-MEL-1 cells; 72 h)
Cc1ccc(S(=O)(=O)NC(=Nc2ccc(/C=C/C(=O)c3c(O)cccc3OCc3ccccc3)cc2)N2CCN(C)CC2)cc1 [Compound 6f],1.5 µM,2.2 ± 0.8 µM,4.5 ± 0.4 µM,~ 10 fold,35.2 ± 3.8 %,10.8 ± 1.6%,28.3 ± 0.2%,25.1% and 25.1 ± 2.6 %,not caused by a significant cell cycle arrest in any phase,11 fold,38%,,,
O=C(/C=C/c1ccc(N=C(Nc2ccccc2)N2CCCCC2)cc1)c1c(O)cccc1OCc1ccccc1 [Compound 6i],< 10 µM,< 10 µM,~10 µM,~ 13 fold,35.9 ± 2.1 %,8.4 ± 0.1 %,23.6 ± 2.4 %,31.6% and 31.6 ± 4.5 %,not caused by a significant cell cycle arrest in any phase,10 fold,36%,7.1 ± 1.3 µM,5.1 ± 1.8 µM,13.8 ± 1.2 µM

# Source: article PMC9779571, “Guanidine Derivatives Containing the Chalcone Skeleton Are Potent Antiproliferative Compounds against Human Leukemia Cells” (International Journal of Molecular Sciences, 2022)
